Assay results: patent US9676773B2, “Azaindole derivative” (TAIHO PHARMACEUTICAL CO., LTD., priority 2014, dated 2017)

Columns and labels:
Type in all cases: biochemical
[1] = biological target: T1, purified recombinant human JAK1 protein (Homo sapiens, UniProt P23458); assay: Measurement of JAK1 kinase-inhibitory activity; details: substrate peptide 1 μM, ATP 75 M (so in the source), 25° C., 120 minutes
T1 construct: purchased Carna Biosciences, Inc
Description: 1) Measurement of JAK1 Kinase-Inhibitory Activity
The activity of the compound of the present invention to inhibit the activity of JAK1 kinase was measured.
(§1) Among materials for the measurement of this inhibitory activity, a substrate peptide and a kinase protein were acquired as follows. As such a substrate peptide, a substrate peptide for QSS Assist™ JAK1-MSA assay kit (Carna Biosciences, Inc.) was purchased. As such a kinase protein, a purified recombinant human JAK1 protein (Carna Biosciences, Inc.) was purchased.
The method for measuring the inhibitory activity is as follows. First, the compounds of the present invention were each dissolved in dimethyl sulfoxide (DMSO), and a serial dilution was then prepared by the use of DMSO. Subsequently, a serial dilution solution of the compound (the final concentration of DMSO upon a kinase reaction: 5.0%) or DMSO (final concentration: 5.0%) was mixed with a solution containing the substrate peptide (final concentration: 1 μM), magnesium chloride (final concentration: 5 mM) and ATP (final concentration: 75 µM) in a buffer for kinase reaction (20 mM HEPES (pH 7.5), 2 mM dithiothreitol and 0.01% Triton X-100). Thereafter, a JAK1 protein was further added to the mixed solution, and the obtained mixture was then incubated at 25° C. for 120 minutes to carry out a kinase reaction. To the reaction solution, EDTA was added to a final concentration of 30 mM, so as to terminate the reaction. Finally, with LabChip EZ Reader II (Perkin Elmer Corp.), an unphosphorylated substrate peptide (S) and a phosphorylated peptide (P) were subjected to microchannel capillary electrophoresis, so that the two peptides were separated from each other and were then detected. The amount of a phosphorylation reaction was obtained based on the heights of the peaks of S and P, and the concentration of the compound capable of inhibiting 50% of the phosphorylation reaction was defined as an IC50 value (nM).

[2] = biological target: T2, purified recombinant human JAK2 protein (Homo sapiens, UniProt O60674); assay: Measurement of JAK2 kinase-inhibitory activity; details: FL-Peptide 22 1 μM, ATP 10 μM, 25° C., 80 minutes
T2 construct: purchased Carna Biosciences, Inc
Description: 2) Measurement of JAK2 Kinase-Inhibitory Activity
The activity of the compound of the present invention to inhibit the activity of JAK2 kinase was measured.
as §1, with “FL-Peptide 22 (Perkin Elmer Corp.)” for “a substrate peptide for QSS Assist™ JAK1-MSA assay kit (Carna Biosciences, Inc.)”, “JAK2” for “JAK1”
(§2) The method for measuring the inhibitory activity is as follows. First, a serial dilution of the compound of the present invention was prepared by the same method as that described in the above section regarding JAK1. This serial dilution solution (the final concentration of DMSO upon a kinase reaction: 5.0%) or DMSO (final concentration: 5.0%) was mixed with a solution containing the substrate peptide (final concentration: 1 μM), magnesium chloride (final concentration: 10 mM) and ATP (final concentration: 10 μM) in a buffer for kinase reaction (15 mM Tris (pH 7.5), 2 mM dithiothreitol and 0.01% Tween 20). Thereafter, a JAK2 protein was further added to the mixed solution, and the obtained mixture was then incubated at 25° C. for 80 minutes to carry out a kinase reaction. To the reaction solution, EDTA was added to a final concentration of 30 mM, so as to terminate the reaction. After termination of the reaction, the measurement and the data analysis were carried out by the same methods as those described in the above section regarding JAK1.

[3] = biological target: T3, purified recombinant human JAK3 protein (Homo sapiens, UniProt P52333); assay: Measurement of JAK3 kinase-inhibitory activity; details: substrate peptide 1 μM, ATP 5 μM, 25° C., 80 minutes
T3 construct: purchased Carna Biosciences, Inc
T3 sequence (P52333 1-1124): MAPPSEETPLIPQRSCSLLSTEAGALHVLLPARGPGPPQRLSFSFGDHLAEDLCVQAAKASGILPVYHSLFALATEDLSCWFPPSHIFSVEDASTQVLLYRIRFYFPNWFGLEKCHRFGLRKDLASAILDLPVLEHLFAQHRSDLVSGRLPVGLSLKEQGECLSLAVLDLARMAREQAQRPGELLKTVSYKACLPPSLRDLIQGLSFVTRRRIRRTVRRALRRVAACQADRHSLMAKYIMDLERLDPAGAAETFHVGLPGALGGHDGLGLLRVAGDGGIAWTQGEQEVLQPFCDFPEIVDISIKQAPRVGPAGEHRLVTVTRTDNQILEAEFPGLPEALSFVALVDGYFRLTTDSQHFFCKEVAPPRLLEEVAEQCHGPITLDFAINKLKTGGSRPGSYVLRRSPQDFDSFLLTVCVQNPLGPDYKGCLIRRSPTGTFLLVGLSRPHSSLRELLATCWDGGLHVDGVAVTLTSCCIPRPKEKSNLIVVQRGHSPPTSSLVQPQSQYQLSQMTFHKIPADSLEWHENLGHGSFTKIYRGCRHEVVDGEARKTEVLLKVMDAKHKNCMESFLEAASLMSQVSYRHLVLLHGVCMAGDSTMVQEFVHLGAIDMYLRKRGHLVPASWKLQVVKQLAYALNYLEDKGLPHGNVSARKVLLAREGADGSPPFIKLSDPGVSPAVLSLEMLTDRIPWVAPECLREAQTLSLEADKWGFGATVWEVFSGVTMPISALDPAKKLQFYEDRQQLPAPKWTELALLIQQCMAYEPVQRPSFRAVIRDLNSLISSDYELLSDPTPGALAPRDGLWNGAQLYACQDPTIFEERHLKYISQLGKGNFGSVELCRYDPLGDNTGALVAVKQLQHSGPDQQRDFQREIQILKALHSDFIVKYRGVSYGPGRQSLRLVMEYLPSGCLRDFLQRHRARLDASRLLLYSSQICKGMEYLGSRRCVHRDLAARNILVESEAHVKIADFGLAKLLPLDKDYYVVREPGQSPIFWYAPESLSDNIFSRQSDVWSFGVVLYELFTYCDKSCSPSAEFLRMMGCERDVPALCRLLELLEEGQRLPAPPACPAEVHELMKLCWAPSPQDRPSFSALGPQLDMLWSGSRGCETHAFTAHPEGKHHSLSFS
Description: 3) Measurement of JAK3 Kinase-Inhibitory Activity
The activity of the compound of the present invention to inhibit the activity of JAK3 kinase was measured.
as §1, with “JAK3-MSA” for “JAK1-MSA”, “JAK3” for “JAK1”
as §2, with “5” for “10”, “(20” for “(15”, “HEPES” for “Tris”, “Triton X-100).” for “Tween 20).”, “JAK3” for “JAK2”

T2 sequence (O60674 whole entry): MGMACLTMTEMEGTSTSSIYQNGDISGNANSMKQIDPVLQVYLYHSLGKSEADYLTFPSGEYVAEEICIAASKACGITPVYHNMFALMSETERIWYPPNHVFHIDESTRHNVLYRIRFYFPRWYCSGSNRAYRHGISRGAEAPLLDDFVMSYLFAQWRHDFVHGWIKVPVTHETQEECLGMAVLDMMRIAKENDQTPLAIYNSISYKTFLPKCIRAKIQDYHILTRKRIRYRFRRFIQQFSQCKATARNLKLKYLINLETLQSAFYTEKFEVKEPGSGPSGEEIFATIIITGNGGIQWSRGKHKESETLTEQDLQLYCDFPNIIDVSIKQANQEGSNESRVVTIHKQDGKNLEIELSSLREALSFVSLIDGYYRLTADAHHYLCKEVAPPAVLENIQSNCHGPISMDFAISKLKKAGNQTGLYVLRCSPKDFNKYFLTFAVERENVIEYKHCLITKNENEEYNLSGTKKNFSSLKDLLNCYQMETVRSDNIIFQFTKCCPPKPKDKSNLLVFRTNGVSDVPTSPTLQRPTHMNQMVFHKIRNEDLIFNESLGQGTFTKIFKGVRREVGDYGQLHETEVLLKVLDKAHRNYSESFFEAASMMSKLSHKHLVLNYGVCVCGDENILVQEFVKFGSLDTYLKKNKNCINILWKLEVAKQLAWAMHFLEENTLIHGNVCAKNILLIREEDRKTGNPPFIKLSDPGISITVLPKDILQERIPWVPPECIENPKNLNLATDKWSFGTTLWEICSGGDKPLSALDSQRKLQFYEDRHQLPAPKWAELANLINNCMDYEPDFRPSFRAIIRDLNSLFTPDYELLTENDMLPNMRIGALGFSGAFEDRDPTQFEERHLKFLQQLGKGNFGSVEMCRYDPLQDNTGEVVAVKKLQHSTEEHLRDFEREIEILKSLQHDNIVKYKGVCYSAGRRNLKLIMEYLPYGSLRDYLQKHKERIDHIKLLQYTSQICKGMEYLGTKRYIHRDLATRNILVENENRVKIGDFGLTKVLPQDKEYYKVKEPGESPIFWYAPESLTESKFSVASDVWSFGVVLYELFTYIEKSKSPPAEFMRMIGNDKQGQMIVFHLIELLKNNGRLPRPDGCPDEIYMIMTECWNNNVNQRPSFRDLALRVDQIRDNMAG
T1 sequence (P23458 whole entry): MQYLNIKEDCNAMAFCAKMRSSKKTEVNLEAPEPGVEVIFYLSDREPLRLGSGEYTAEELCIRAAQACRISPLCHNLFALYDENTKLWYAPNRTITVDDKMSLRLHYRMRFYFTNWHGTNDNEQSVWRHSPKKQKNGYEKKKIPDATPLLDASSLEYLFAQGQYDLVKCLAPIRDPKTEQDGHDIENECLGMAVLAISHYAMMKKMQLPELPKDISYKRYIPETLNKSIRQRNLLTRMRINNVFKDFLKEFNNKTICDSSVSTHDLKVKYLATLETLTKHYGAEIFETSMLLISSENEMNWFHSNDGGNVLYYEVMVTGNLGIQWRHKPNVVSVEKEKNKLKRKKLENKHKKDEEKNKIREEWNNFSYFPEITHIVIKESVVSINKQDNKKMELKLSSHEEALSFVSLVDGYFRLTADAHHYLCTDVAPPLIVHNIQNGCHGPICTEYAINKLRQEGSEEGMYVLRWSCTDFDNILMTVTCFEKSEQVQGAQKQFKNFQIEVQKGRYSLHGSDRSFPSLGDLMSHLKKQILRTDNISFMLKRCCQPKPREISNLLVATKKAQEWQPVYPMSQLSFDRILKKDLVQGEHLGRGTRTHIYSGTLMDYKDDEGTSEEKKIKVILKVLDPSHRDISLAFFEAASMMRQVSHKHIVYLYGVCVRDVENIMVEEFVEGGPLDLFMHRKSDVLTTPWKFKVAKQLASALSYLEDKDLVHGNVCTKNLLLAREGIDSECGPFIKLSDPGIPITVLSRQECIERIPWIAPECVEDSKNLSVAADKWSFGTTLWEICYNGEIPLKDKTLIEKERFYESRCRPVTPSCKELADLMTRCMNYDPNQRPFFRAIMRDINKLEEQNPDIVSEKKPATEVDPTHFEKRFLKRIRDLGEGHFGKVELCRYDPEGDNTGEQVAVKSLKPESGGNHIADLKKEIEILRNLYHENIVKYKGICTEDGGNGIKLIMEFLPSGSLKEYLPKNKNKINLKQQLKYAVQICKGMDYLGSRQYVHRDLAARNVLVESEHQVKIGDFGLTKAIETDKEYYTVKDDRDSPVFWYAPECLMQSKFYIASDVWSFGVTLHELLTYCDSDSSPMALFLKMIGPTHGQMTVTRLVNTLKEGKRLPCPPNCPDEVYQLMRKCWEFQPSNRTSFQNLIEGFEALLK

| IC50 [1] | IC50 [2] | IC50 [3] | Compound |
| --- | --- | --- | --- |
| 3 µM | 0.38 µM | 0.00061 µM | C=CC(=O)NC1CCC=C(c2ccnc3[nH]cc(-c4nnc(CC)o4)c23)C1 (stereo not drawn) [Compound 51, N-(3-(3-(5-Ethyl-1,3,4-oxadiazol-2-yl)-1H-pyrrolo[2,3-b]pyridin-4-yl)cyclohex-3-en-1-yl)acrylamide] |
| 0.89 µM | 0.48 µM | < 0.0003 µM | C=CC(=O)NC1CCC=C(c2ccnc3[nH]cc(-c4n[nH]c(=O)o4)c23)C1 (stereo not drawn) [Compound 52, N-(3-(3-(5-Oxo-4,5-dihydro-1,3,4-oxadiazol-2-yl)-1H-pyrrolo[2,3-b]pyridin-4-yl)cyclohex-3-en-1-yl)acrylamide] |
